# Measurements published in EP0888293B1, “N-ACYLAMINOALKYLHYDRAZINECARBOXIMIDAMIDES” (ALTEON Inc., priority 1995, dated 1997).
# Counter-ions that a name gives are not always drawn.
# Columns and labels:
# [1] = molecular target: T1, inducible nitric oxide synthase (Mus musculus, UniProt P29477); test: Nitric oxide production by lipopolysaccharide-induced macrophage cells; format: cell-based; details: RAW 264.7 macrophage cells induced with lipopolysaccharide; test concentration not given
# T1 construct: Nitric oxide (NO) production by macrophage cells (RAW 264.7) is induced with lipopolysaccharride; endogenous in cells; host or cells: RAW 264.7 macrophage cells, LPS-induced
# [2] = test system: N-acetyl glycyl-lysine methyl ester; test: Inhibition of cross-linking of N-acetyl glycyl-lysine methyl ester in the presence of ribose (fluorescence); format: biochemical; details: N-acetylglycyllysine methyl ester + ribose, pH 7.4, 37°C, 16-24 hours, fluorescence 350/400 nm
# Method: The following method was used to evaluate the ability of the compounds of the present invention to inhibit the cross-linking of N-acetyl glycyl-lysine methyl ester in the presence of ribose.
# • 0.5 M sodium phosphate buffer pH 7.4 • N-acetylglycyllysine methyl ester in 0.5M sodium phosphate buffer, pH 7.4 • Ribose: 800 mM • Test compounds dissolved in the above buffer and the pH is adjusted to 7.4, if necessary
# Reaction mixtures are prepared as follows:
# and incubated at 37°C for 16-24 hours. At the end of the incubation period, the fluorescence is read using an excitation wavelength of 350 nm and emission wavelength of 400 nm.
# [3] = test system: fixed protein (gelatin, i.e., collagen) surface; test: Surface browning experiment on gelatin/paper disks; details: 100 mM glucose-6-phosphate, one week at 50°C, pH 7.4; Peridex at final concentration of 0.04% chlorhexidine, no compound of Formula I
# Method: To further study the ability of inhibitors of nonenzymatic browning to prevent the discoloration of protein on a surface, such as that which occurs on the tooth surface, the following surface browning experiment is performed. As a substitute for a pellicle-covered tooth surface, unexposed and developed photographic paper is used to provide a fixed protein (gelatin, i.e., collagen) surface on a paper backing. Five millimeter circles are punched and immersed for one week at 50°C in a solution of 100 mM glucose-6-phosphate in a 0.5 M phosphate buffer, pH 7.4, containing 3 mM sodium azide. Glucose-6-phosphate is a sugar capable of participating in nonenzymatic browning at a more rapid rate than glucose. In addition to the glucose-6-phosphate, chlorhexidine and/or a compound of Formula I are included. After incubation, the gelatin/paper disks are rinsed with water, observed for brown color, and photographed.
SMILES,% inhibition of NO release [1],IC50 ([2]; hydrobromide),IC50 ([2]; hydrochloride),IC50 [2],browning of gelatin/paper disks [3]
Br.CC(=O)NCCNC(=N)NN [N-(2-acetamidoethyl)hydrazine carboximidamide hydrobromide],20%,11.5 mM,–,–,–
CC(=O)NCCNC(=N)NN.Cl [N-(2-acetamidoethyl)hydrazine carboximidamide hydrochloride],15%,–,10.6 mM,–,–
"N=C(N)NN [Aminoguanidine hydrochloride, reference compound]",44%,–,–,10 mM,–
CC(=O)NCCCNC(=N)NN [N-(3-acetamidopropyl)hydrazinecarboximidamide],33%,–,–,> 10 mM,–
[H]/N=C(\N/C(=N/[H])NCCCCCCNC(=N)NC(=N)Nc1ccc(Cl)cc1)Nc1ccc(Cl)cc1 [chlorhexidine],–,–,–,–,significant browning
